Measured values: ChEMBL document CHEMBL1201862, “PubChem BioAssay data set” (2004)
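Test compounds were applied to cells in 96-well plates for 48 hours at 5 doses. Abbreviation: GI50, concentration required for 50% inhibition of growth.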 Active and inactive are the calls of the source. No stated cut-off is given here; in the data, active = GI50 up to about 1.1 µM and inactive = higher.

Experiments:
Assay in all cases: NCI anticancer screen, dose series, 48 h
A549 = system: A549
ACHN = system: ACHN
CAKI-1 = system: CAKI-1
CCRF-CEM = system: CCRF-CEM
HCT-116 = system: HCT-116
HL-60 = system: HL-60
M14 = system: M14
OVCAR-8 = system: OVCAR-8
RPMI-8226 = system: RPMI-8226
SK-OV-3 = system: SK-OV-3
SW-620 = system: SW-620
UACC-257 = system: UACC-257
UACC-62 = system: UACC-62
NCI-H226 = system: NCI-H226
OVCAR-5 = system: OVCAR-5
SF-268 = system: SF-268
NCI-H522 = system: NCI-H522

Measured: GI50

CC(C)(C)c1cc(C2c3cc4c(cc3OC(O)(CO)C2C(=O)O)OCO4)cc(C(C)(C)C)c1O.CC(C)(C)c1cc(C2c3cc4c(cc3OC3(O)COC(=O)C23)OCO4)cc(C(C)(C)C)c1O (stereo not given)
inactive: A549 18.7 µM | ACHN 14.8 µM | CAKI-1 18.4 µM | CCRF-CEM 3.58 µM | HCT-116 8.47 µM | HL-60 7.73 µM | M14 14.7 µM | OVCAR-8 10 µM | RPMI-8226 4.37 µM | SK-OV-3 27.3 µM | SW-620 14.4 µM | UACC-257 13.2 µM | UACC-62 5 µM

O=C(Nc1ccc([N+](=O)[O-])cc1C(=O)O)c1ccc([N+](=O)[O-])cc1
inactive: A549 59.6 µM | ACHN 25.3 µM | CCRF-CEM 11.4 µM | HCT-116 15.5 µM | HL-60 17.1 µM | M14 36.2 µM | NCI-H226 17.5 µM | OVCAR-5 45.8 µM | OVCAR-8 32.1 µM | RPMI-8226 14.4 µM | SF-268 37.7 µM | SK-OV-3 79.3 µM | SW-620 46.3 µM | UACC-257 40 µM | UACC-62 42.8 µM

Cc1oc2c(C)c3oc(=O)cc(C)c3cc2c1CN
inactive: A549 40.3 µM | ACHN 27.7 µM | CCRF-CEM 41.9 µM | HCT-116 22.8 µM | HL-60 39 µM | M14 38.5 µM | NCI-H226 34.4 µM | NCI-H522 42.4 µM | OVCAR-5 42.1 µM | OVCAR-8 40.6 µM | RPMI-8226 39.4 µM | SF-268 31 µM | SK-OV-3 23.7 µM | SW-620 19.5 µM | UACC-257 41.3 µM | UACC-62 92.3 µM

Cn1c2c(c3ccccc31)CCN(CCCN1CCN(c3ccccc3)CC1)C2=O
inactive: A549 23.6 µM | ACHN 21.6 µM | CAKI-1 16.7 µM | CCRF-CEM 28.2 µM | HCT-116 16.1 µM | HL-60 13.5 µM | M14 16.4 µM | NCI-H522 14.3 µM | OVCAR-8 21.6 µM | RPMI-8226 16 µM | SF-268 25.7 µM | SK-OV-3 19.9 µM | SW-620 22.1 µM | UACC-62 19.3 µM

O=[PH](O)c1cc2ccccc2c2ccccc12
inactive: A549 > 100 µM | CCRF-CEM > 100 µM | HCT-116 > 100 µM | HL-60 > 100 µM | M14 > 100 µM | NCI-H226 > 100 µM | NCI-H522 > 100 µM | OVCAR-8 > 100 µM | RPMI-8226 > 100 µM | SF-268 > 100 µM | SK-OV-3 > 100 µM | SW-620 > 100 µM | UACC-62 > 100 µM

CCN(CC)CC1CCCCN1CC(=O)N1CC(C)C(=O)Nc2ccccc21 (stereo not given)
inactive: A549 > 100 µM | ACHN > 100 µM | CAKI-1 > 100 µM | CCRF-CEM > 100 µM | HCT-116 > 100 µM | HL-60 > 100 µM | M14 > 100 µM | NCI-H226 > 100 µM | OVCAR-5 > 100 µM | RPMI-8226 > 100 µM | SF-268 > 100 µM | SK-OV-3 > 100 µM | SW-620 > 100 µM | UACC-257 > 100 µM | UACC-62 > 100 µM

[N-]=[N+]=NC1(Cc2ccccc2)C(=O)Nc2ccccc2C1=O (stereo not given)
inactive: A549 > 100 µM | ACHN > 100 µM | CAKI-1 > 100 µM | CCRF-CEM > 100 µM | HCT-116 > 100 µM | HL-60 > 100 µM | M14 > 100 µM | NCI-H522 87.1 µM | OVCAR-5 > 100 µM | OVCAR-8 > 100 µM | SF-268 > 100 µM | SK-OV-3 > 100 µM | SW-620 > 100 µM | UACC-257 > 100 µM | UACC-62 > 100 µM

C/C(=N\NC(N)=S)c1cc(C)c(C)cc1C
inactive: A549 45.2 µM | ACHN > 100 µM | CAKI-1 > 100 µM | CCRF-CEM 29.9 µM | HCT-116 > 100 µM | HL-60 21.7 µM | M14 37.2 µM | NCI-H226 > 100 µM | OVCAR-5 20.1 µM | OVCAR-8 > 100 µM | RPMI-8226 31.3 µM | SF-268 62.4 µM | SK-OV-3 > 100 µM | SW-620 44 µM | UACC-257 90.8 µM | UACC-62 30.9 µM

O=C(c1ccco1)N(C(=S)N1CCN(c2ccccc2)CC1)C1CCCCC1
inactive: A549 67.1 µM | ACHN > 100 µM | CAKI-1 > 100 µM | CCRF-CEM > 100 µM | HCT-116 62.8 µM | HL-60 > 100 µM | M14 98.4 µM | NCI-H522 > 100 µM | OVCAR-5 > 100 µM | OVCAR-8 > 100 µM | RPMI-8226 > 100 µM | SF-268 > 100 µM | SK-OV-3 > 100 µM | SW-620 > 100 µM | UACC-257 72.4 µM | UACC-62 > 100 µM

C=C1C2CC(OC(C)=O)C3(C)C(c4ccoc4)OC(=O)[C@@H](O)[C@]13OC1C[C@H](OC(C)=O)C(C)(C)[C@H](CC(=O)OC)[C@]12C (stereo not given in full)
inactive: A549 > 100 µM | ACHN > 100 µM | CCRF-CEM > 100 µM | HCT-116 > 100 µM | HL-60 50.6 µM | M14 > 100 µM | NCI-H226 > 100 µM | OVCAR-8 > 100 µM | RPMI-8226 > 100 µM | SK-OV-3 > 100 µM | SW-620 > 100 µM | UACC-62 > 100 µM

CC(=O)OC(CC1(C)C(C)CCC23COC(=O)C2=CCCC31)c1ccoc1 (stereo not given)
inactive: A549 31.6 µM | ACHN 28.8 µM | CCRF-CEM 20.2 µM | HCT-116 20.5 µM | M14 16.3 µM | NCI-H226 16.7 µM | NCI-H522 18.5 µM | OVCAR-5 28.2 µM | OVCAR-8 20.3 µM | SF-268 15.9 µM | SK-OV-3 40.8 µM | SW-620 24.9 µM | UACC-257 24 µM | UACC-62 23.1 µM

O=C1OC(c2ccccc2)=N/C1=C/NC(CS)C(=O)O (stereo not given)
inactive: A549 > 100 µM | ACHN > 100 µM | CCRF-CEM > 100 µM | HCT-116 > 100 µM | HL-60 > 100 µM | M14 > 100 µM | NCI-H226 > 100 µM | NCI-H522 55.8 µM | OVCAR-5 > 100 µM | OVCAR-8 > 100 µM | RPMI-8226 > 100 µM | SF-268 > 100 µM | SK-OV-3 > 100 µM | SW-620 > 100 µM | UACC-257 > 100 µM | UACC-62 > 100 µM

O=[N+]([O-])c1ccc(CNC2=NNS(=O)(=O)c3ccccc32)cc1
inactive: A549 > 100 µM | ACHN > 100 µM | CAKI-1 26.6 µM | CCRF-CEM 19.5 µM | HCT-116 > 100 µM | HL-60 79.3 µM | M14 > 100 µM | NCI-H226 > 100 µM | OVCAR-5 > 100 µM | OVCAR-8 > 100 µM | RPMI-8226 34.5 µM | SF-268 > 100 µM | SW-620 > 100 µM | UACC-257 > 100 µM | UACC-62 34.6 µM
